Test results: US20030144346A1, “Methods and compositions for regulation of 5-alpha reductase activity” (priority 1997, published 2003)
Where two headings read alike, the source gives them in different places. Blank lines part the entries; values can stand above or below the compound they belong to.

How the values were obtained:
[1] = target: T1, type 1 human 5α-reductase (HRED1) (Homo sapiens, UniProt P18405); test: Cell free assay of 5α-reductase, microsomes of rat 1A cells expressing type 1 isoenzyme (HRED1); type: biochemical; design: expressed in transfected cells; host or cells: rat 1A cells infected with pMV7 retrovirus; microsomes;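 note: microsomes from rat 1A cells expressing human type 1 5α-reductase, conversion of radiolabeled testosterone to dihydrotestosterone quantified by thin layer chromatography with radioanalytic scanning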
T1 sequence (P18405 1-259): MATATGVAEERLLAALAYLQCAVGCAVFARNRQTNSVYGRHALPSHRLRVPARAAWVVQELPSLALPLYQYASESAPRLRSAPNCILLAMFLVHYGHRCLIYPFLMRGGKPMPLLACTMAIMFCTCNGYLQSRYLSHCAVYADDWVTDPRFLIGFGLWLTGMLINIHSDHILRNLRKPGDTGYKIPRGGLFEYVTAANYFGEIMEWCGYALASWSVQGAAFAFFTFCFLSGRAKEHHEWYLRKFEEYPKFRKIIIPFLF

[2] = target: T2, type 2 human 5α-reductase (HRED2) (Homo sapiens, UniProt P31213); test: Cell free assay of 5α-reductase, microsomes of rat 1A cells expressing type 2 isoenzyme (HRED2); type: biochemical; design: expressed in transfected cells; host or cells: rat 1A cells infected with pMV7 retrovirus; microsomes;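 note: labeled testosterone and its product dihydrotestosterone measured in microsomal reaction extracts via thin layer chromatography plus radioanalytic scanning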
T2 sequence (P31213 1-254): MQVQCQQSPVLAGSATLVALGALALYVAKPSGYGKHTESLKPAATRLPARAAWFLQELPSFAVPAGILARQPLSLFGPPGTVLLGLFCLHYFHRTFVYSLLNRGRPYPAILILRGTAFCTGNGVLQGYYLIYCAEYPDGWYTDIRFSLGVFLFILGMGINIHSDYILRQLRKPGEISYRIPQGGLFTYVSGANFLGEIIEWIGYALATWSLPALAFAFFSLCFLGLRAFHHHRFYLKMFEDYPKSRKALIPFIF

[3] = 100 uM, cell free assay, Table 2, read-out: HRED1 % Inhibition @ 100 uM
[4] = cell free assay, Table 2 catechols, read-out: HRED1 IC50
[5] = 100 uM, cell free assay, Table 2, read-out: HRED2 % Inhibition @ 100 uM
[6] = 100 uM, cell free assay, Table 3, read-out: HRED1 % Inhibition @ 100 uM
[7] = cell free assay, Table 3 curcumin and related compounds, read-out: HRED1 IC50
[8] = 100 uM, cell free assay, Table 3, read-out: HRED2 % Inhibition @ 100 uM
[9] = 100 uM, cell free assay, Table 1
[10] = cell free assay, Table 1 flavanoids, read-out: HRED1 IC50
[11] = cell free assay, Table 1 flavanoids, read-out: HRED2 IC50
[12] = 100 μM, cell free assay, Table 4, read-out: HRED1 % Inhibition @ 100 μM
[13] = cell free assay, Table 4 quinones, read-out: HRED1 IC50
[14] = 100 μM, cell free assay, Table 4, read-out: HRED2 % Inhibition @ 100 μM
[15] = cell free assay, Table 4 quinones, read-out: HRED2 IC50
[16] = 100 μM, cell free assay, Table 4
[17] = cell free assay, Table 2 catechols, read-out: HRED2 IC50
[18] = 100 uM, cell free assay, Table 2
[19] = cell-free assay, read-out: IC50, type 1 isoenzyme
[20] = read-out: IC50, type 2 isoenzyme
[21] = 100 uM, cell free assay, Table 3

inhibition at 100 µM [1, 3]: 85% | IC50 [1, 4]: 48 µM | inhibition at 100 µM [2, 5]: 47%
Compound: O=C1C=CC(=C(c2ccc(O)c(O)c2)c2ccccc2S(=O)(=O)O)C=C1O (mixture of isomers) [Pyrocatechol Violet]

inhibition at 100 µM [1, 6]: 10% | IC50 [1, 7]: > 100 µM | inhibition at 100 µM [2, 8]: -60% | IC50 ([2]; read-out: HRED2 IC50): > 100 µM
Compound: COc1cc(C=CC=O)ccc1O [4-hydroxy-3-methoxycinnamaldehyde]

Compound: O=c1cc(-c2ccccc2)oc2c1ccc1ccccc12 [Alpha-napthoflavone]
HRED1 % Inhibition @ 100 uM [1, 9]: 6% | IC50 [1, 10]: > 100 µM | HRED2 % Inhibition @ 100 uM [2, 9]: (−13) % | IC50 [2, 11]: > 100 µM

inhibition at 100 µM [1, 12]: 27% | IC50 [1, 13]: > 100 µM | inhibition at 100 µM [2, 14]: 22% | IC50 [2, 15]: > 100 µM
Compound: O=C1c2ccc(O)cc2C(=O)c2ccc(O)cc21 [Anthraflavic Acid]

Compound: O=C1c2ccccc2C(=O)c2ccccc21 [Anthraquinone]
IC50 [1]: > 100 µM | inhibition at 100 µM ([1]; read-out: HRED1 % Inhibition @ 100 μM): 6% | IC50 ([1]; read-out: HRED1 IC50, cell free assay, Table 4 quinones): > 100 µM | IC50 [2]: > 100 µM | inhibition at 100 µM ([2]; read-out: HRED2 % Inhibition @ 100 μM): 9% | IC50 ([2]; read-out: HRED2 IC50, cell free assay, Table 4 quinones): > 100 µM

HRED1 % Inhibition @ 100 μM [1, 16]: 67% | inhibition at 100 µM [1, 12]: 67% | IC50 [1, 13]: 40 µM | HRED2 % Inhibition @ 100 μM [2, 16]: 13% | inhibition at 100 µM [2, 14]: 13% | IC50 [2, 15]: > 100 µM
Compound: O=C1c2cccc(O)c2C(=O)c2cccc(O)c21 [Anthrarufin]

Compound: O=c1cc(-c2ccccc2)oc2ccc3ccccc3c12 [Beta-napthoflavone]
HRED1 % Inhibition @ 100 uM [1, 9]: 3% | IC50 [1, 10]: > 100 µM | HRED2 % Inhibition @ 100 uM [2, 9]: 4% | IC50 [2, 11]: > 100 µM

inhibition at 100 µM [1, 3]: 98% | IC50 [1, 4]: 7 µM | inhibition at 100 µM [2, 5]: 58% | IC50 [2, 17]: 84 µM
Compound: O=c1c(Br)cc2c(-c3ccccc3S(=O)(=O)O)c3cc(Br)c(O)c(O)c3oc-2c1O [Bromopyrogallol Red]

Compound: COc1cc(CNC(=O)CCCC/C=C/C(C)C)ccc1O [Capsaicin]
IC50 [1]: > 100 µM | inhibition at 100 µM [1, 6]: 0% | IC50 [1, 7]: > 100 µM | IC50 [2]: > 100 µM | inhibition at 100 µM [2, 8]: 8% | IC50 ([2]; read-out: HRED2 IC50): > 100 µM

IC50 [1, 10]: > 100 µM | IC50 [2, 11]: > 100 µM
Compound: O=c1cc(-c2ccccc2)oc2cc(O)cc(O)c12 [Chrysin]

Compound: OC1c2ccccc2-c2ccccc2C1O (stereo not drawn) [Cnc]
HRED1 % Inhibition @ 100 uM [1, 18]: 42% | IC50 [1, 4]: > 100 µM | HRED2 % Inhibition @ 100 uM [2, 18]: (−75) % | IC50 [2, 17]: > 100 µM

Compound: COC1=C(OC)C(=O)C(C/C=C(\C)CC/C=C(\C)CC/C=C(\C)CC/C=C(\C)CC/C=C(\C)CC/C=C(\C)CC/C=C(\C)CC/C=C(\C)CC/C=C(\C)CCC=C(C)C)=C(C)C1=O [Coenzyme q]
HRED1 % Inhibition @ 100 μM [1, 16]: 77% | IC50 [1, 13]: 12 µM | inhibitory activity against type 1 isoenzyme, in words ([1]; cell-free assay): potent cell-free inhibitors | HRED2 % Inhibition @ 100 μM [2, 16]: 81% | IC50 [2, 15]: 22 µM | inhibitory activity against type 2 isoenzyme, in words ([2]; cell-free assay): potent cell-free inhibitors

IC50 [1, 7]: > 100 µM | IC50 [1, 19]: > 100 µM | IC50 [2, 20]: > 100 µM
Compound: COc1cc(/C=C/CO)ccc1O [Coniferol]

IC50 ([1]; cell free assay, Table 6 fatty acids, read-out: HRED1 IC50): 7 µM | IC50 ([2]; cell free assay, Table 6 fatty acids, read-out: HRED2 IC50): > 100 µM
Compound: CC(/C=C/C=C(\C)C(=O)O)=C\C=C\C=C(C)\C=C\C=C(/C)C(=O)O [Crocetin]

HRED1 % Inhibition @ 100 uM [1, 21]: 23% | IC50 [1, 7]: > 100 µM | HRED2 % Inhibition @ 100 uM [2, 21]: 42% | IC50 ([2]; cell free assay, Table 3 curcumin and related compounds, read-out: HRED2 IC50): > 100 µM
Compound: COc1cc(CCC(=O)CC(=O)CCc2ccc(O)cc2)ccc1O [Demethoxytetrahydrocurcumin]

inhibition at 100 µM [1, 3]: 7% | IC50 [1, 4]: > 100 µM | inhibition at 100 µM [2, 5]: 9% | IC50 [2, 17]: > 100 µM
Compound: O=c1oc2c(O)c(O)cc3c(=O)oc4c(O)c(O)cc1c4c23 [Ellagic Acid]

Compound: C=CCc1ccc(O)c(OC)c1 [Eugenol]
IC50 [1, 7]: > 100 µM | IC50 [1, 19]: > 100 µM | inhibition at 100 µM ([1]; read-out: HRED1 % Inhibition @ 100 uM): 0% | inhibition at 100 µM ([2]; read-out: HRED2 % Inhibition @ 100 uM): 50% | IC50 [2, 20]: > 100 µM

HRED1 % Inhibition @ 100 uM [1, 18]: 7% | IC50 [1, 4]: > 100 µM | HRED2 % Inhibition @ 100 uM [2, 18]: 13% | IC50 [2, 17]: > 100 µM
Compound: O=c1ccc2cc(O)c(O)cc2o1 [Exculetin]
